Reference: article PMC12299203, “Pyrrolopyrimidines: Design, Synthesis and Antitumor Properties of Novel Tricyclic Pyrrolo [2,3-d]pyrimidine Derivatives” (Molecules, 2025)
Read-outs that look alike come from different tables or passages of the source.

Experiments:
[1] = system: HeLa (cervical) cell line; test: MTT cytotoxic activity assay, HeLa; type: cell-based, human; details: 72 h; for IC50: Homo sapiens, HeLa
Experimental: (§1) All the synthesized tricyclic pyrrolo[2,3-d]pyrimidines 8a–j and 10a–f were evaluated for their cytotoxic activity on cancer cell lines derived from the most common cancers: breast (MCF-7), cervical (HeLa), and colon (HT-29). Human cancer cell lines were treated with synthesized compounds, using doxorubicin (DOX) as a positive control, at concentrations of the compounds ranging from 0.001 to 6.561 μM. Cells were incubated at 37 °C for 72 h before measurement, and IC50 values were determined graphically. In our previous research, the cytotoxic activity of compounds 6a and 6b was also evaluated on the same human cancer cell lines used in the current study.
(§2) The MCF-7, HeLa, and HT-29 cell lines, obtained from the Chinese Type Culture Collection, CAS (Shanghai, China), were used as models for cytotoxicity screening. The samples were dissolved in dimethyl sulfoxide (DMSO) (50 μM) and stored at 4 °C. Cell viability was determined using the MTT assay. For the MTT assay, the target cells were seeded in 96-well plates and treated with the synthesized samples for 72 h. Then, 5 mg/mL MTT was added to the culture medium, and 10 μL/well was added. The plate was then incubated in the dark at 37 °C for 4 h. The medium was removed, and 100 μL of dimethyl sulfoxide was added per well. OD570 was measured using Spectra Max M5 (Molecular Devices, CA, USA). Cell viability (%) = ODcompound /ODDMSO × 100%. IC50 values were calculated using GraphPad Prism 9 (CA, USA) by nonlinear regression of the log-transformed data (X Log[X]), with the log (inhibitor) vs. normalized response-variable slope tool.

HT-29 (colon) cell line [2] = test: MTT cytotoxic activity assay, HT-29; type: cell-based; details: Homo sapiens, 72 h
Experimental: as §1, §2

MCF-7 (breast) cell line = test: MTT cytotoxic activity assay, MCF-7; type: cell-based, human; details: for IC50: Homo sapiens, MCF7, 72 h
Experimental: as §1, §2

[3] = system: HeLa (cervical) cell line; design: method as in PMID 36197552; details: previous research ref 29; cited from earlier work
HT-29 (colon) cell line [4] = system: HT-29 (colon) cell line; design: method as in PMID 36197552; details: previous research ref 29; cited from earlier work
[5] = system: HeLa, MCF-7 and HT-29 cell lines; test: MTT cytotoxic activity, stated across the three cancer cell lines; type: cell-based, human; details: span over HeLa, MCF-7, HT-29; for IC50: Homo sapiens, read-out: IC50 across all three cell lines
Experimental: as §1, §2

[6] = system: human embryonic kidney (HEK-293) cells; test: Cytotoxicity on non-cancerous HEK-293 cells; type: cell-based; details: HEK293, read-out: IC50 (±SD), HEK-293
Experimental: On the other hand, the inactivity of these leads on HeLa and MCF-7 cells (IC50 ≥ 50 µM) indicates specific tumor type selectivity. […] The selectivity index (SI) was then calculated as the ratio of the IC50 values for HEK-293 and HT-29 cells and is shown in Table 2.
as §2

`Cn1c(-c2ccc(Br)cc2)c(Cl)c2c(=O)n3c(nc21)CCCCC3` [Compound 10d, 2-(4-Bromophenyl)-3-chloro-1-methyl-1,6,7,8,9,10-hexahydro-4H-pyrrolo[2’,3’:4,5]pyrimido[1,2-a]azepin-4-one] showed an IC50 [1] of at least 50 µM, an IC50 (HT-29 (colon) cell line [2]) of at least 50 µM and an IC50 (MCF-7 (breast) cell line) of at least 50 µM.

`Cn1c(-c2ccc(Cl)cc2)cc2/c(=N\c3ccc(Br)cc3)n3c(nc21)CCCC3` [Compound 8d, (E)-N-(4-Bromophenyl)-2-(4-chlorophenyl)-1-methyl-6,7,8,9-tetrahydropyrido[1,2-a]pyrrolo[2,3-d]pyrimidin-4(1H)-imine] gave an IC50 [1] of at least 50 µM, an IC50 (HT-29 (colon) cell line [2]) of at least 50 µM and an IC50 (MCF-7 (breast) cell line) of at least 50 µM.

In the case of `Cn1c(-c2ccc(Cl)cc2)cc2/c(=N\c3ccc(Cl)cc3)n3c(nc21)CCCC3` [Compound 8c, (E)-N,2-Bis(4-chlorophenyl)-1-methyl-6,7,8,9-tetrahydropyrido[1,2-a]pyrrolo[2,3-d]pyrimidin-4(1H)-imine], the IC50 [1] is reported as at least 50 µM, the IC50 (HT-29 (colon) cell line [2]) is reported as at least 50 µM and the IC50 (MCF-7 (breast) cell line) is reported as at least 50 µM.

In the case of `Cn1c(-c2ccc(Cl)cc2)cc2/c(=N\c3ccccc3)n3c(nc21)CCCC3` [Compound 8a, (E)-2-(4-Chlorophenyl)-1-methyl-N-phenyl-6,7,8,9-tetrahydropyrido[1,2-a]pyrrolo[2,3-d]pyrimidin-4(1H)-imine], the IC50 [1] is reported as at least 50 µM, the IC50 (HT-29 (colon) cell line [2]) is reported as 19.2 ± 0.91 µM and the IC50 (MCF-7 (breast) cell line) is reported as at least 50 µM.

With `Cn1c(-c2ccc(Cl)cc2)cc2/c(=N\c3ccc(C(F)(F)F)cc3)n3c(nc21)CCCC3` [Compound 8e, (E)-2-(4-Chlorophenyl)-1-methyl-N-(4-(trifluoromethyl)phenyl)-6,7,8,9-tetrahydropyrido[1,2-a]pyrrolo[2,3-d]pyrimidin-4(1H)-imine] the IC50 [1] was at least 50 µM, the IC50 (HT-29 (colon) cell line [2]) was at least 50 µM and the IC50 (MCF-7 (breast) cell line) was at least 50 µM.

In the case of `Cn1c(-c2ccc(Cl)cc2)cc2c(=O)n3c(nc21)CCCC3` [Compound 6a, 2-(4-Chlorophenyl)-1-methyl-6,7,8,9-tetrahydropyrido[1,2-a]pyrrolo[2,3-d]pyrimidin-4(1H)-one], the IC50 [3] is given as 6.55 ± 0.31 µM and the IC50 (HT-29 (colon) cell line [4]) is given as 24 ± 0.47 µM.

For `Cn1c(-c2ccc(Cl)cc2)c(I)c2c(=O)n3c(nc21)CCCC3` [Compound 10c, 2-(4-Chlorophenyl)-3-iodo-1-methyl-6,7,8,9-tetrahydropyrido[1,2-a]pyrrolo[2,3-d]pyrimidin-4(1H)-one], the “IC50 across all three cell lines” value [5] was “selective yet weaker activity”, the IC50 [1] was at least 50 µM and the IC50 (HT-29 (colon) cell line [2]) was 34.2 ± 1.6 µM. It also gave an IC50 (MCF-7 (breast) cell line) of at least 50 µM.

For `Cn1c(-c2ccc(Br)cc2)c(Br)c2c(=O)n3c(nc21)CCCCC3` [Compound 10e, 3-Bromo-2-(4-bromophenyl)-1-methyl-1,6,7,8,9,10-hexahydro-4H-pyrrolo[2’,3’:4,5]pyrimido[1,2-a]azepin-4-one], the “IC50 across all three cell lines” value [5] was “selective yet weaker activity”, the IC50 [1] was at least 50 µM and the IC50 (HT-29 (colon) cell line [2]) was 16 ± 0.75 µM. For the same compound, the IC50 (MCF-7 (breast) cell line) was at least 50 µM.

With `Cn1c(-c2ccc(Cl)cc2)c(Cl)c2c(=O)n3c(nc21)CCCC3` [Compound 10a, 3-Chloro-2-(4-chlorophenyl)-1-methyl-6,7,8,9-tetrahydropyrido[1,2-a]pyrrolo[2,3-d]pyrimidin-4(1H)-one] the IC50 [5] was 23 to 28 µM, the “IC50, HeLa” value [1] was “moderate activity” and the IC50 [1] was 22.8 ± 0.98 µM. It also gave an IC50 (HT-29 (colon) cell line [2]) of 24.7 ± 1.13 µM and an IC50 (MCF-7 (breast) cell line) of 27.5 ± 1.07 µM.

`Cn1c(-c2ccc(Cl)cc2)cc2/c(=N\c3ccc(F)cc3)n3c(nc21)CCCC3` [Compound 8b, (E)-2-(4-Chlorophenyl)-N-(4-fluorophenyl)-1-methyl-6,7,8,9-tetrahydropyrido[1,2-a]pyrrolo[2,3-d]pyrimidin-4(1H)-imine] gave an IC50 [1] of at least 50 µM, an IC50 (HT-29 (colon) cell line [2]) of at least 50 µM and an IC50 (MCF-7 (breast) cell line) of at least 50 µM.

With `Cn1c(-c2ccc(Cl)cc2)c(Br)c2c(=O)n3c(nc21)CCCC3` [Compound 10b, 3-Bromo-2-(4-chlorophenyl)-1-methyl-6,7,8,9-tetrahydropyrido[1,2-a]pyrrolo[2,3-d]pyrimidin-4(1H)-one] the “IC50 across all three cell lines” value [5] was “selective yet weaker activity”, the IC50 [1] was at least 50 µM and the IC50 (HT-29 (colon) cell line [2]) was at least 50 µM. The “IC50, MCF-7” value (MCF-7 (breast) cell line; 72 h) was “moderate activity” and the IC50 (MCF-7 (breast) cell line) was 20.1 ± 0.93 µM.

With `Cn1c(-c2ccc(Br)cc2)c(I)c2c(=O)n3c(nc21)CCCCC3` [Compound 10f, 2-(4-Bromophenyl)-3-iodo-1-methyl-1,6,7,8,9,10-hexahydro-4H-pyrrolo[2’,3’:4,5]pyrimido[1,2-a]azepin-4-one] the “IC50 across all three cell lines” value [5] was “selective yet weaker activity”, the IC50 [1] was at least 50 µM and the IC50 (HT-29 (colon) cell line [2]) was 19 ± 0.92 µM. For the same compound, the IC50 (MCF-7 (breast) cell line) was at least 50 µM.

For `Cn1c(-c2ccc(Br)cc2)cc2/c(=N\c3ccc(Cl)cc3)n3c(nc21)CCCCC3` [Compound 8h, (E)-2-(4-Bromophenyl)-N-(4-chlorophenyl)-1-methyl-1,6,7,8,9,10-hexahydro-4H-pyrrolo[2’,3’:4,5]pyrimido[1,2-a]azepin-4-imine], the IC50 [1] was at least 50 µM, the IC50 (HT-29 (colon) cell line [2]) was at least 50 µM and the IC50 (MCF-7 (breast) cell line) was at least 50 µM.

`Cn1c(-c2ccc(Br)cc2)cc2/c(=N\c3ccc(C(F)(F)F)cc3)n3c(nc21)CCCCC3` [Compound 8j, (E)-2-(4-Bromophenyl)-1-methyl-N-(4-(trifluoromethyl)phenyl)-1,6,7,8,9,10-hexahydro-4H-pyrrolo[2’,3’:4,5]pyrimido[1,2-a]azepin-4-imine] gave an IC50 [1] of at least 50 µM, an IC50 (HT-29 (colon) cell line [2]) of at least 50 µM and an IC50 (MCF-7 (breast) cell line) of at least 50 µM.

For `COc1cccc2c1C(=O)c1c(O)c3c(c(O)c1C2=O)C[C@@](O)(C(=O)CO)C[C@@H]3O[C@H]1C[C@H](N)[C@H](O)[C@H](C)O1` [DOX, doxorubicin, reference compound], the IC50 [5] was 0.18 to 0.94 µM, the IC50 [1] was 0.94 ± 0.016 µM and the IC50 (HT-29 (colon) cell line [2]) was 0.82 ± 0.029 µM. For the same compound, the IC50 (MCF-7 (breast) cell line) was 0.18 ± 0.011 µM.

`Cn1c(-c2ccc(Br)cc2)cc2/c(=N\c3ccc(Br)cc3)n3c(nc21)CCCCC3` [Compound 8i, (E)-N,2-Bis(4-bromophenyl)-1-methyl-1,6,7,8,9,10-hexahydro-4H-pyrrolo[2’,3’:4,5]pyrimido[1,2-a]azepin-4-imine] showed an IC50 [1] of at least 50 µM, an IC50 (HT-29 (colon) cell line [2]) of at least 50 µM and an IC50 (MCF-7 (breast) cell line) of at least 50 µM.

In the case of `Cn1c(-c2ccc(Br)cc2)cc2c(=O)n3c(nc21)CCCCC3` [Compound 6b, 2-(4-Bromophenyl)-1-methyl-1,6,7,8,9,10-hexahydro-4H-pyrrolo[2’,3’:4,5]pyrimido[1,2-a]azepin-4-one], the IC50 [3] is listed as at least 50 µM and the IC50 (HT-29 (colon) cell line [4]) is listed as 7.61 ± 0.31 µM.

`Cn1c(-c2ccc(Br)cc2)cc2/c(=N\c3ccccc3)n3c(nc21)CCCCC3` [Compound 8f, (E)-2-(4-Bromophenyl)-1-methyl-N-phenyl-1,6,7,8,9,10-hexahydro-4H-pyrrolo[2’,3’:4,5]pyrimido[1,2-a]azepin-4-imine] gave an IC50 [6] of 195 ± 0.07 µM, an IC50 [1] of at least 50 µM and an IC50 (HT-29 (colon) cell line [2]) of 4.55 ± 0.23 µM. For the same compound, the IC50 (MCF-7 (breast) cell line) was at least 50 µM.

`Cn1c(-c2ccc(Br)cc2)cc2/c(=N\c3ccc(F)cc3)n3c(nc21)CCCCC3` [Compound 8g, (E)-2-(4-Bromophenyl)-N-(4-fluorophenyl)-1-methyl-1,6,7,8,9,10-hexahydro-4H-pyrrolo[2’,3’:4,5]pyrimido[1,2-a]azepin-4-imine] gave an IC50 [6] of 169 ± 0.1 µM, an IC50 [1] of at least 50 µM and an IC50 (HT-29 (colon) cell line [2]) of 4.01 ± 0.2 µM. It also gave an IC50 (MCF-7 (breast) cell line) of at least 50 µM.
